In patent US10561703B2, “Method of modulating sex hormone levels using a sex hormone secretion modulator” (GEMVAX & KAEL CO., LTD., priority 2013, dated 2020):

System: LH
Test: LH level in blood (serum CLIA) after repeated sc PEP-1
Type: in vivo, SD rats
Procedure: PEP-1 (peptide of SEQ ID NO: 1), lyophilized white powder, obtained according to the method mentioned in example 1 was dissolved in 0.9% of saline, considering the correction factor of PEP-1 (purity: 94.13%, content: 92.36%, correction factor: 1.15). 50 mg/mL stock solution was further diluted into 20 mg/mL, 2 mg/mL, and 1 mg/mL with 0.9% saline, and stored at 4° C. for a week until the use.
The purpose of this example is to confirm the change of sexual hormones in blood from SD rats with 7 days repeated daily administration of SEQ ID NO: 1 peptide, PEP-1. This experiment followed the Ethics Regulation of Animal Test by KAMSI Inc. (Korea Animal Medical Science Institute). In addition, this experiment, Non-GLP experiment, referred to the MFDS (Ministry of Food and Drug Safety) notification; Agent 2013-40 (5th April 2013), Principles of Good Laboratory Practice (1997).
SPF Rats (Crlj:CD(SD)) were purchased from ORIENTBio Inc. (Mokdong-ri, Buk-myeon, Gapyeong-gun, Gyeonggi-do, Republic of Korea). 75 male (6.5 weeks old and 190˜210 g) and 75 female (6.5 weeks old and 160˜180 g) rats were monitored for 4 days, and 64 of male and female rats (each) were selected for the experiment. Raising condition is as follows; 23±3° C. of temperature, […] of relative humidity, 10˜20 times/hr of number of air changes, 12 hours (8 a.m.˜8 p.m.) of lighting with 150˜300 Lux of intensity.
64 male and female […] (mentioned above) were divided into 8 groups. Administration regimen, for example, drugs, routes, dosages, and volumes were as follows:
The detailed administration regimen is as follows; once a day, twice a day and twice a week in each experimental group. Injection initiated at 10 a.m. every day, and each rat was injected at one minute intervals. Rats in Group 9, 10, 13 and 14 were injected twice a week. Administration of high dose test agent preceded that of low dose. The volume of injection was calculated using recently measured weight of rats, and it was 5 mL/kg. Subcutaneous injection was performed as follows; assistant tilted the back of rat upward, and experimenter sterilized the back of rat with 70% alcohol, followed by subcutaneous injection of test agent with 26 G syringe.
1.4 mL of blood sample (0.7 mL of serum) was collected after measurement of weight (Day 0). Next day (1 Day), 1.4 mL of blood sample (0.7 mL of serum) was collected twice after injection of test agent (4 hrs and 8 hrs after administration of test agent). For next 6 days (Day 2˜Day 7), 1.4 mL of blood was extracted once everyday (4 hours after injection of test agent). Dose and volume of test agent of each group followed the Table 3, and injection time zone was same every day. Blood was extracted from the jugular vein, and left at room temperature for 30 minutes. Serum was separated using centrifugation (10,000 rpm for 5 minutes), and stored at −70±5° C. in Deep freezer until the use. Blood extraction from each subject was done in the same time zone every day.
A CLIA (Chemi-Luminescence Immune Assay) Kit was used to analyze Testosterone, Estradiol E2, FSH (Follicle stimulating hormone), and LH (Luteinizing hormone). Analysis was completed within 48 hrs after blood extraction (Laboratory Medicine Department, Chung-Ang University Hospital), and detailed method is as follows; One-way ANOVA was used to verify the comparison between the vehicle and PEP-1, and between different doses of PEP-1. For further analysis, Duncan test was used as parametric test and Dunnett's test as non-parametric test. p<0.05 represents the statistical significance, and all statistical analysis was carried out with SPSS 10.1.
LH was analyzed using the samples prepared from example 2. 50 μL of serum was used for analysis. Fundamentals of analysis is Two-site sandwich immunoassay based on direct chemi-luminescent. As mentioned in example 2, CLIA (Chemi-luminescence immune assay) Kit was used, following the manufacture's protocol.

EARPALLTSRLRFIPK (listed as Homo sapiens) [PEP-1, hormone secretion modulator / GnRH analog]
LH level in blood (G11 Male 100 mg/kg sc 1/day x7, 5 days): 0.19 mIU/mL
LH level in blood (G11 Male 100 mg/kg sc 1/day x7, 6 days): 0.21 mIU/mL
LH level in blood (G11 Male 100 mg/kg sc 1/day x7, 7 days): 0.21 mIU/mL
LH level in blood (G11 Male 100 mg/kg sc 1/day x7, pre): 0.1 mIU/mL
LH level in blood (G12 Female 100 mg/kg sc 1/day x7, 4 hr): 0.3 mIU/mL
LH level in blood (G12 Female 100 mg/kg sc 1/day x7, 8 hr): 0.17 mIU/mL
LH level in blood (G12 Female 100 mg/kg sc 1/day x7, 2 days): 0.22 mIU/mL
LH level in blood (G12 Female 100 mg/kg sc 1/day x7, 3 days): 0.22 mIU/mL
LH level in blood (G12 Female 100 mg/kg sc 1/day x7, 4 days): 0.23 mIU/mL
LH level in blood (G12 Female 100 mg/kg sc 1/day x7, 5 days): 0.23 mIU/mL
LH level in blood (G12 Female 100 mg/kg sc 1/day x7, 6 days): 0.28 mIU/mL
LH level in blood (G12 Female 100 mg/kg sc 1/day x7, 7 days): 0.27 mIU/mL
LH level in blood (G12 Female 100 mg/kg sc 1/day x7, pre): 0.13 mIU/mL
LH level in blood (G13 Male 100 mg/kg sc 2/week x2 (days 1,7), 4 hr): 1.52 mIU/mL
LH level in blood (G13 Male 100 mg/kg sc 2/week x2 (days 1,7), 8 hr): 0.21 mIU/mL
LH level in blood (G13 Male 100 mg/kg sc 2/week x2 (days 1,7), 2 days): 0.11 mIU/mL
LH level in blood (G13 Male 100 mg/kg sc 2/week x2 (days 1,7), 3 days): 0.11 mIU/mL
LH level in blood (G13 Male 100 mg/kg sc 2/week x2 (days 1,7), 4 days): 0.14 mIU/mL
LH level in blood (G13 Male 100 mg/kg sc 2/week x2 (days 1,7), 5 days): 0.13 mIU/mL
LH level in blood (G13 Male 100 mg/kg sc 2/week x2 (days 1,7), 6 days): 0.11 mIU/mL
LH level in blood (G13 Male 100 mg/kg sc 2/week x2 (days 1,7), 7 days): 0.99 mIU/mL
LH level in blood (G13 Male 100 mg/kg sc 2/week x2 (days 1,7), pre): 0.12 mIU/mL
LH level in blood (G14 Female 100 mg/kg sc 2/week x2 (days 1,7), 4 hr): 0.44 mIU/mL
LH level in blood (G14 Female 100 mg/kg sc 2/week x2 (days 1,7), 8 hr): 0.18 mIU/mL
LH level in blood (G14 Female 100 mg/kg sc 2/week x2 (days 1,7), 2 days): 0.17 mIU/mL
LH level in blood (G14 Female 100 mg/kg sc 2/week x2 (days 1,7), 3 days): 0.14 mIU/mL
LH level in blood (G14 Female 100 mg/kg sc 2/week x2 (days 1,7), 4 days): 0.09 mIU/mL
LH level in blood (G14 Female 100 mg/kg sc 2/week x2 (days 1,7), 5 days): 0.12 mIU/mL
LH level in blood (G14 Female 100 mg/kg sc 2/week x2 (days 1,7), 6 days): 0.11 mIU/mL
LH level in blood (G14 Female 100 mg/kg sc 2/week x2 (days 1,7), 7 days): 0.57 mIU/mL
LH level in blood (G14 Female 100 mg/kg sc 2/week x2 (days 1,7), pre): 0.12 mIU/mL
LH level in blood (G15 Male 250 mg/kg sc 1/day x7, 4 hr): 1.4 mIU/mL
LH level in blood (G15 Male 250 mg/kg sc 1/day x7, 8 hr): 0.29 mIU/mL
LH level in blood (G15 Male 250 mg/kg sc 1/day x7, 2 days): 0.28 mIU/mL
LH level in blood (G15 Male 250 mg/kg sc 1/day x7, 3 days): 0.2 mIU/mL
LH level in blood (G15 Male 250 mg/kg sc 1/day x7, 4 days): 0.19 mIU/mL
LH level in blood (G15 Male 250 mg/kg sc 1/day x7, 5 days): 0.2 mIU/mL
LH level in blood (G15 Male 250 mg/kg sc 1/day x7, 6 days): 0.21 mIU/mL
LH level in blood (G15 Male 250 mg/kg sc 1/day x7, 7 days): 0.23 mIU/mL
LH level in blood (G15 Male 250 mg/kg sc 1/day x7, pre): 0.12 mIU/mL
LH level in blood (G16 Female 250 mg/kg sc 1/day x7, 4 hr): 0.42 mIU/mL
LH level in blood (G16 Female 250 mg/kg sc 1/day x7, 8 hr): 0.2 mIU/mL
LH level in blood (G16 Female 250 mg/kg sc 1/day x7, 2 days): 0.23 mIU/mL
LH level in blood (G16 Female 250 mg/kg sc 1/day x7, 3 days): 0.22 mIU/mL
LH level in blood (G16 Female 250 mg/kg sc 1/day x7, 4 days): 0.23 mIU/mL
LH level in blood (G16 Female 250 mg/kg sc 1/day x7, 5 days): 0.26 mIU/mL
LH level in blood (G16 Female 250 mg/kg sc 1/day x7, 6 days): 0.28 mIU/mL
LH level in blood (G16 Female 250 mg/kg sc 1/day x7, 7 days): 0.28 mIU/mL
LH level in blood (G16 Female 250 mg/kg sc 1/day x7, pre): 0.11 mIU/mL
Effect on LH secretion (male and female): seems to stimulate the LH secretion
LH level (male, 4 hrs, all groups but vehicle, before administration 0.1 mIU/mL): 0.5-1.5 mIU/mL
